From ChEMBL document CHEMBL6153137, “Design, Synthesis, and Biological Evaluation of Novel Orally Available Covalent CDK12/13 Dual Inhibitors for the Treatment of Tumors” (J Med Chem, 2025)
The source made the active and inactive calls. The calls are words filed in the database; no cut-off is given here.

Tests used:
[1] = molecular target: T1, Cyclin-dependent kinase 13/Cyclin-K (Homo sapiens, UniProt Q14004); experiment: Inhibition of CDK13/Cyclin K (unknown origin) using pS7-CTD peptide and ATP as substrate incubated for 120 mins by ADP-Glo reagent based luminescence analysis; assay type: protein-complex assay
T1 sequence (Q14004 whole entry): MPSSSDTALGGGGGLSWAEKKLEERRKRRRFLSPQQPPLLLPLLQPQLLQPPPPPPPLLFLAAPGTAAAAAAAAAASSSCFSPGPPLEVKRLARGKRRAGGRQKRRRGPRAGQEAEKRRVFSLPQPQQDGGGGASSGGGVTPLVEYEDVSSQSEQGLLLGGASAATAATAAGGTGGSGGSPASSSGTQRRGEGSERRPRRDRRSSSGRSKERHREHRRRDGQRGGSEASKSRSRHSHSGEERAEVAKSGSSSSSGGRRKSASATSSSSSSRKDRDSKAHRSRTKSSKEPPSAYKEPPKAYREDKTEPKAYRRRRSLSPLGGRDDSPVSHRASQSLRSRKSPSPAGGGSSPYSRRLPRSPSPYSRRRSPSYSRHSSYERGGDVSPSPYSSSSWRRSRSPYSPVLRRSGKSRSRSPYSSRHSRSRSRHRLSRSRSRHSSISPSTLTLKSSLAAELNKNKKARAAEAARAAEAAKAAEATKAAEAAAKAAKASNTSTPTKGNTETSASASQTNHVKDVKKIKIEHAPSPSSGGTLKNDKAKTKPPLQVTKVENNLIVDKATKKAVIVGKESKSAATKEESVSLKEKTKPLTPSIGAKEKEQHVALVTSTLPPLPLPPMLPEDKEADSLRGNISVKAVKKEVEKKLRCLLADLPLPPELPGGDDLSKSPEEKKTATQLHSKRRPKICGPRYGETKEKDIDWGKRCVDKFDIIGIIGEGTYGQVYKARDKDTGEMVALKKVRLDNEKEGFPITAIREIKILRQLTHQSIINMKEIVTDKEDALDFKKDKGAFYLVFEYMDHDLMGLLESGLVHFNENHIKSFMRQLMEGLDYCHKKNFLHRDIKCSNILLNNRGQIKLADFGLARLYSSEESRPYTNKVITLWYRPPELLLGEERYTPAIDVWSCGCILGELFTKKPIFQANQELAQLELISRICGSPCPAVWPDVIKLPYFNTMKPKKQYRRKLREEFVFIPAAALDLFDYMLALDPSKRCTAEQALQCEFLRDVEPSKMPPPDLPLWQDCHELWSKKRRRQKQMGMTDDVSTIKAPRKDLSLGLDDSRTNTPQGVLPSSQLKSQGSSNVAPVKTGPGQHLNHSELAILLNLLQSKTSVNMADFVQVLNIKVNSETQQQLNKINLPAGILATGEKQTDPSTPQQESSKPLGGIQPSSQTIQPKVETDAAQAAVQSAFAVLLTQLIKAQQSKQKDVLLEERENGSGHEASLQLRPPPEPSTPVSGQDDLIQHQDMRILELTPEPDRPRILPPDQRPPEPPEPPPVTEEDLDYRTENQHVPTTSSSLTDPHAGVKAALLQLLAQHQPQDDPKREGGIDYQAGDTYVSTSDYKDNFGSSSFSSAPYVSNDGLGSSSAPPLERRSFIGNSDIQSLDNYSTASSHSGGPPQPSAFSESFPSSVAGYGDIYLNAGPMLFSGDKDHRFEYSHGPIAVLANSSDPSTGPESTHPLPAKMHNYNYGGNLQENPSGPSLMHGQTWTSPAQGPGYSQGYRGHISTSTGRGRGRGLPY
T1 sequence (O75909 whole entry, further chain): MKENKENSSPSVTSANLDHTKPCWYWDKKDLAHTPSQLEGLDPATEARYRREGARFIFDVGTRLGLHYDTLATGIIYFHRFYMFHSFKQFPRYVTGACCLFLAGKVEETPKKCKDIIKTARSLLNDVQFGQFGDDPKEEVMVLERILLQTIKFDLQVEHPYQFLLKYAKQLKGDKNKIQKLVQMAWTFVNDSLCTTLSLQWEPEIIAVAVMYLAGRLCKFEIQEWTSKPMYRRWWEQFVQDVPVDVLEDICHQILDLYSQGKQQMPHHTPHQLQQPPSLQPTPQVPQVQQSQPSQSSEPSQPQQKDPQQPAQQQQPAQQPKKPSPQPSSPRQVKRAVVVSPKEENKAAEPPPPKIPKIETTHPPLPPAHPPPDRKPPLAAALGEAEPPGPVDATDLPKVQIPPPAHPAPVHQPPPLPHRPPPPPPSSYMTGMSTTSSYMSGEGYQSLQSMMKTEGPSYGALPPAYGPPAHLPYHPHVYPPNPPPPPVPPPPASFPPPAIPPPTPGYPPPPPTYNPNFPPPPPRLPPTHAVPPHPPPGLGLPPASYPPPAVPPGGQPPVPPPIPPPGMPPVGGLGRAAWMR

[2] = GSH reactivity assessed as half life to adduct formation at 0.1 uM by LC-MS/MS analysis; assay type: physicochemical
NAMALVA = experiment: Antiproliferative activity against human NAMALWA cells assessed as reduction in cell viability incubated for 7 days by CellTiter-Glo reagent based luminescence analysis; assay type: functional; conditions: 168 h
SW1417 = experiment: Antiproliferative activity against human SW1417 cells assessed as reduction in cell viability incubated for 7 days by CellTiter-Glo reagent based luminescence analysis; assay type: functional; conditions: SW1417, 168 h
[3] = molecular target: Cyclin-dependent kinase 12/13 (Homo sapiens) (UniProt Q14004+Q9NYV4); experiment: Inhibition of CDK12/13 in human SUM149PT cells assessed as reduction in BRCA1 gene expression at 500 nM incubated for 8 to 24 hrs by qPCR analysis; assay type: cell-based; conditions: time lower 8.0 hrs, time upper […]
[4] = molecular target: CDK18/Cyclin Y (Homo sapiens) (UniProt Q07002+Q8ND76); experiment: Inhibition of human recombinant N-terminal GST-tagged CDK18/N-terminal GST-tagged Cyclin Y expressed in HEP Sf9 cells using ATP as substrate at 2 uM measured after 60 mins by ADP-Glo reagent based luminescence assay
[5] = molecular target: CDK7/Cyclin H/MNAT1 (Homo sapiens) (UniProt P51946+P50613+P51948); experiment: Inhibition of human recombinant N-terminal 6X His-tagged CDK7/CCNH/N-terminal 6X His-tagged MNAT1 expressed in HEP Sf9 cells using ATP as substrate at 2 uM measured after 60 mins by ADP-Glo reagent based luminescence assay
[6] = molecular target: CDK2/Cyclin A2 (Homo sapiens) (UniProt P24941+P20248); experiment: Inhibition of human recombinat N-terminal GST-tagged CDK2/C-terminal 8X His-tagged Cyclin A2 expressed in HEP Sf9 cells using ATP as substrate at 2 uM measured after 60 mins by ADP-Glo reagent based luminescence analysis
[7] = molecular target: T1, Cyclin-dependent kinase 13/Cyclin-K; experiment: Inhibition of human recombinant N-terminal GST-tagged CDK13/N-terminal FLAG and C-terminal His-tagged Cyclin K expressed in HEP Sf9 cells using ATP as substrate measured after 60 mins by ADP-Glo reagent based luminescence assay
CDK7/Cyclin H/MNAT1 = CDK7/Cyclin H/MNAT1 (Homo sapiens, UniProt P50613); experiment: Inhibition of human recombinant N-terminal 6X His-tagged CDK7/CCNH/N-terminal 6X His-tagged MNAT1 expressed in HEP Sf9 cells using ATP as substrate measured after 60 mins by ADP-Glo reagent based luminescence assay
Chain of CDK7/Cyclin H/MNAT1 (P51946 whole entry): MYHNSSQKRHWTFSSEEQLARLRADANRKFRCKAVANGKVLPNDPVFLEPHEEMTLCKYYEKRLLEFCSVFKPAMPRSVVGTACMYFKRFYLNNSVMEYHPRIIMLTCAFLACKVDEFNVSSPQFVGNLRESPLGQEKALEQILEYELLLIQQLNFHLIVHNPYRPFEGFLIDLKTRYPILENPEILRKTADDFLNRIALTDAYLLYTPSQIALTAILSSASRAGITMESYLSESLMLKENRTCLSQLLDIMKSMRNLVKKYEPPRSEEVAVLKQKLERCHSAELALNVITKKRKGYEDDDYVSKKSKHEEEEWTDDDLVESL
Chain of CDK7/Cyclin H/MNAT1 (P50613 whole entry): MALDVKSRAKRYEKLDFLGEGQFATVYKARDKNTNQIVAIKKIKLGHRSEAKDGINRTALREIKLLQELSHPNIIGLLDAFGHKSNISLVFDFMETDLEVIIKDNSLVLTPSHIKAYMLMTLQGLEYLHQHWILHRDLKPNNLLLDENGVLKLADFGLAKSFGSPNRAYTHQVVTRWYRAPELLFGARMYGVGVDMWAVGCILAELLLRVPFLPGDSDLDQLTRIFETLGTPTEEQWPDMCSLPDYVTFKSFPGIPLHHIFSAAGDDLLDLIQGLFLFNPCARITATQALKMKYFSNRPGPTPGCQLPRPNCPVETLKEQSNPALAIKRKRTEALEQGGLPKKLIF
Chain of CDK7/Cyclin H/MNAT1 (P51948 whole entry, further chain): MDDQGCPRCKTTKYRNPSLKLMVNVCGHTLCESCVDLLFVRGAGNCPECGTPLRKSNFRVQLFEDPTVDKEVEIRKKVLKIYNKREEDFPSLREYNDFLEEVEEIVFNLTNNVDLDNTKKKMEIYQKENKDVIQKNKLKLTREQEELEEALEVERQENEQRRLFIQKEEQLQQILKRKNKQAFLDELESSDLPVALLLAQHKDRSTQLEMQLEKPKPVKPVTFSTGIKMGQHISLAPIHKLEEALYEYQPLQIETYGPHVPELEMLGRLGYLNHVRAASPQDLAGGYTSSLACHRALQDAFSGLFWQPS

CDK9/cyclin T1 = CDK9/cyclin T1 (Homo sapiens, UniProt P50750); experiment: Inhibition of human recombinant N-terminal GST-tagged CDK9/N-terminal GST-tagged and C-terminal 8X His-tagged Cyclin T1 expressed in HEP Sf9 cells using ATP as substrate measured after 60 mins by ADP-Glo reagent based luminescence assay
Chain of CDK9/cyclin T1 (O60563 whole entry): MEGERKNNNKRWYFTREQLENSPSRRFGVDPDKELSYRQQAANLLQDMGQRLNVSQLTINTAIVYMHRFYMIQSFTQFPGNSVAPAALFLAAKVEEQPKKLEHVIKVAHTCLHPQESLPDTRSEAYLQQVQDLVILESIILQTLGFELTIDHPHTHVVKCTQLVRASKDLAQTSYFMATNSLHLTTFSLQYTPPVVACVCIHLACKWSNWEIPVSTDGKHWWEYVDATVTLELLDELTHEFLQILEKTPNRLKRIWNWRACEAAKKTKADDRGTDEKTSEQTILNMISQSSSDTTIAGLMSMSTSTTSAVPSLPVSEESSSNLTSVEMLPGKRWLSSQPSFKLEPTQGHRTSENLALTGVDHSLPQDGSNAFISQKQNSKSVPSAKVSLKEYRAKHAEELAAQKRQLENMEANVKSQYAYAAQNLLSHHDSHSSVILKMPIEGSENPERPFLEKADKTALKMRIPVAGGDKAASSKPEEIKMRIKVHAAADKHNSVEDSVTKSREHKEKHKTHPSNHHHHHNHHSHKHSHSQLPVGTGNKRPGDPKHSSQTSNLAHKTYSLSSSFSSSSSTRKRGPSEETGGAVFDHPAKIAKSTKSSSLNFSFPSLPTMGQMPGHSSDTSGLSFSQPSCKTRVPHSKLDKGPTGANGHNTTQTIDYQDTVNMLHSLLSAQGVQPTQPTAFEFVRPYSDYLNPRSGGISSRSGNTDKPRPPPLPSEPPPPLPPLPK
Chain of CDK9/cyclin T1 (P50750 whole entry): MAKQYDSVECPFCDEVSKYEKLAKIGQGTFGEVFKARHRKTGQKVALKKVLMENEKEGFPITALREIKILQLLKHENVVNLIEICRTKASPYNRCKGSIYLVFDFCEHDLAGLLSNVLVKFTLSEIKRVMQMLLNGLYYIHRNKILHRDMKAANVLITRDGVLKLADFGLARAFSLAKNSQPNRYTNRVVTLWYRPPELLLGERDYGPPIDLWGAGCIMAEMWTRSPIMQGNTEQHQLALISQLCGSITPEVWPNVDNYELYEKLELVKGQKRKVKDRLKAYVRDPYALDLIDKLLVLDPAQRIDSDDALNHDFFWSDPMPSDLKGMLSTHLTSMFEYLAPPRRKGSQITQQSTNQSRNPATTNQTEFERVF

[8] = molecular target: Mitogen-activated protein kinase 8 (Homo sapiens) (UniProt P45983); experiment: Inhibition of JNK1 (unknown origin) at 5 uM by DiscoverX KinomeScan ScanMAX analysis
Chain of Mitogen-activated protein kinase 8 (Homo sapiens) (P45983 whole entry): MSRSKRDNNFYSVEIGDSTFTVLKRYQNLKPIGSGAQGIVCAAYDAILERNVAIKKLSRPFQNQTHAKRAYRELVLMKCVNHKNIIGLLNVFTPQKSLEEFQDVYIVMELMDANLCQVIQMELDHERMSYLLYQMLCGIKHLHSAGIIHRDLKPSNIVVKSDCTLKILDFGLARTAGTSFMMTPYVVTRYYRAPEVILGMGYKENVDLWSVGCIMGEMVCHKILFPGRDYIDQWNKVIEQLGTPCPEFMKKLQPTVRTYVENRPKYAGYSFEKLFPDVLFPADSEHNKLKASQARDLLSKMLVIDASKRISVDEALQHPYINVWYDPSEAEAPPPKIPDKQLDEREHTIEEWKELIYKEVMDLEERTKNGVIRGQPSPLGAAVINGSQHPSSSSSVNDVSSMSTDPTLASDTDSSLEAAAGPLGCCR

[9] = Cmax in Balb/c mouse xenografted with human MV4-11 cells at 15 mg/kg, po administered once daily via gavage; assay type: ADME, organism-based; conditions: in vivo
[10] = Toxicity against Balb/c mouse xenografted with human MV4-11 cells assessed as effect on body weight at 15 to 30 mg/kg, po administered once daily via gavage and measured every 3 days for 3 weeks; assay type: organism-based; conditions: in vivo, 504 h, dose 15-30 mg/kg
Mus musculus = experiment: In vivo inhibition of CDK12/13 in Balb/c mouse xenografted with human SUM149PT cells assessed as reduction in ATM gene expression at 15 to 30 mg/kg, po administered once daily via gavage and measured at 4 hrs post-last drug dosage by qPCR analysis; assay type: functional, organism-based; conditions: dose 15-30 mg/kg
[11] = Cmax in Sprague-Dawley rat at 1 mg/kg, iv measured for 24 hrs by LC-MS/MS analysis; assay type: ADME, organism-based; conditions: in vivo
[12] = Cmax in Sprague-Dawley rat at 15 mg/kg, po measured for 24 hrs by LC-MS/MS analysis; assay type: ADME, organism-based; conditions: in vivo
[13] = Half life in Sprague-Dawley rat at 150 mg/kg, po measured for 24 hrs by LC-MS/MS analysis; assay type: ADME, organism-based; conditions: in vivo
[14] = Toxicity against female Sprague-Dawley rat assessed as effect on body weight at 7.5 to 15 mg/kg, po administered once daily via gavage for 28 days and measured twice a week; assay type: organism-based; conditions: in vivo, 672 h, dose 7.5-15 mg/kg, time 28 day
[15] = Toxicity against male Sprague-Dawley rat assessed as effect on hemoglobin level at 10 to 40 mg/kg, po administered once daily via gavage for 28 days and measured on day 29; assay type: organism-based; conditions: in vivo, 696 h, dose 10-40 mg/kg, time 29 day
[16] = Toxicity against male Sprague-Dawley rat assessed as effect on blood urea nitrogen level at 10 to 40 mg/kg, po administered once daily via gavage for 28 days and measured on day 29; assay type: organism-based; conditions: in vivo, 696 h, dose 10-40 mg/kg, time 29 day
[17] = Toxicity against male Sprague-Dawley rat assessed as effect on sodium level in blood at 10 to 40 mg/kg, po administered once daily via gavage for 28 days and measured on day 29; assay type: organism-based; conditions: in vivo, 696 h, dose 10-40 mg/kg, time 29 day
[18] = Toxicity against female Sprague-Dawley rat assessed as effect on creatinine level in blood at 7.5 to 30 mg/kg, po administered once daily via gavage for 28 days and measured on day 29; assay type: organism-based; conditions: in vivo, 696 h, dose 7.5-30 mg/kg, time 29 day
[19] = Toxicity against male Sprague-Dawley rat assessed as decrease in thymus volume at 10 to 40 mg/kg, po administered once daily via gavage for 28 days and measured on day 29; assay type: organism-based; conditions: in vivo, 696 h, dose 10-40 mg/kg, time 29 day
[20] = Half life in male Sprague-Dawley rat at 20 mg/kg, po administered via gavage and measured on day 1; assay type: ADME, organism-based; conditions: in vivo
[21] = Half life in male Sprague-Dawley rat at 40 mg/kg, po administered via gavage and measured on day 1; assay type: ADME, organism-based; conditions: in vivo, time 1 day
[22] = Half life in female Sprague-Dawley rat at 15 mg/kg, po administered via gavage and measured on day 1; assay type: ADME, organism-based; conditions: in vivo, time 1 day
[23] = Cmax in male Sprague-Dawley rat at 10 mg/kg, po administered once daily via gavage for 28 days; assay type: ADME, organism-based; conditions: in vivo, time 28 day
[24] = Cmax in female Sprague-Dawley rat at 30 mg/kg, po administered once daily via gavage for 28 days; assay type: ADME, organism-based; conditions: in vivo, time 28 day
[25] = AUC(0 to t) in female Sprague-Dawley rat at 15 mg/kg, po administered via gavage and measured on day 1; assay type: ADME, organism-based; conditions: in vivo, 24 h, time 1 day
[26] = AUC(0 to t) in female Sprague-Dawley rat at 30 mg/kg, po administered via gavage and measured on day 1; assay type: ADME, organism-based; conditions: in vivo, 24 h, time 1 day
[27] = Toxicity against female Sprague-Dawley rat assessed as body weight loss at 30 mg/kg, po administered once daily via gavage for 28 days and measured twice a week; assay type: organism-based; conditions: in vivo, 672 h, time 28 day

IC50 [1]: 79.4 nM
t1/2 [2]: 1.48 h
IC50 (SW1417): 137 nM
inhibition [3]: Active
inhibition [4]: 68%
inhibition [5]: 94%
inhibition [6]: 1%
IC50 [7]: 111 nM
IC50 (CDK7/Cyclin H/MNAT1): 204 nM
IC50 (CDK9/cyclin T1): 641 nM
inhibition [8]: Active
Cmax [9]: 647 ng/mL
Cmax [11]: 830 ng/mL
Cmax [12]: 797 ng/mL
half-life [13]: 21.2 h
half-life [20]: 4.1 h
half-life [21]: 6.2 h
half-life [22]: 3.7 h
Cmax [23]: 576 ng/mL
Cmax [24]: 1690 ng/mL
AUCt [25]: 3000 ng·h/mL
AUCt [26]: 9090 ng·h/mL
SMILES: C=CC(=O)N1CCc2c(ncnc2N2CC[C@@H](Nc3ncc(Cl)c(OC)n3)C2)C1
IC50 (NAMALVA): 98 nM
Activity [10]: Non-toxic
inhibition (Mus musculus): Active
Activity [14]: Non-toxic
Activity [15]: Non-toxic
Activity [16]: Non-toxic
Activity [17]: Non-toxic
Activity [18]: Non-toxic
Activity [19]: Toxic
Activity [27]: Toxic
